According to PubChem BioAssay (NCI):
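Dose response: 5 concentrations. Exposure: 48 h. Format: 96-well plates. Endpoint: linear interpolation; highest concentration if not reached. GI50: concentration for 50% inhibition of growth. TGI is the concentration that stops growth completely.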

Experiments:
Test in all cases: growth of human tumour cells (NCI), 48 h
IGROV1 ovarian = test system: IGROV1 ovarian
HL-60(TB) leukemia = test system: HL-60(TB) leukemia
M14 melanoma = test system: M14 melanoma
U251 CNS = test system: U251 CNS
EKVX NSCLC = test system: EKVX NSCLC
HCT-15 colon = test system: HCT-15 colon
UACC-62 melanoma = test system: UACC-62 melanoma
SF-295 CNS = test system: SF-295 CNS
UO-31 renal = test system: UO-31 renal
MCF7 breast = test system: MCF7 breast
BT-549 breast = test system: BT-549 breast
HOP-62 NSCLC = test system: HOP-62 NSCLC
OVCAR-4 ovarian = test system: OVCAR-4 ovarian
SNB-19 CNS = test system: SNB-19 CNS
SK-OV-3 ovarian = test system: SK-OV-3 ovarian
DU-145 prostate = test system: DU-145 prostate
RPMI-8226 leukemia = test system: RPMI-8226 leukemia
SNB-75 CNS = test system: SNB-75 CNS
OVCAR-8 ovarian = test system: OVCAR-8 ovarian
MOLT-4 leukemia = test system: MOLT-4 leukemia
PC-3 prostate = test system: PC-3 prostate
OVCAR-3 ovarian = test system: OVCAR-3 ovarian
A549 NSCLC = test system: A549 NSCLC
MDA-MB-435 = test system: MDA-MB-435
786-0 renal = test system: 786-0 renal
MALME-3M melanoma = test system: MALME-3M melanoma
OVCAR-5 ovarian = test system: OVCAR-5 ovarian
SK-MEL-2 melanoma = test system: SK-MEL-2 melanoma
HS 578T breast = test system: HS 578T breast
SW-620 colon = test system: SW-620 colon
RXF 393 renal = test system: RXF 393 renal
NCI-H23 lung = test system: NCI-H23 lung
SK-MEL-5 melanoma = test system: SK-MEL-5 melanoma
NCI/ADR-RES ovarian = test system: NCI/ADR-RES ovarian
MDA-MB-231 breast = test system: MDA-MB-231 breast
HCC-2998 colon = test system: HCC-2998 colon
COLO 205 colon = test system: COLO 205 colon
NCI-H522 lung = test system: NCI-H522 lung
NCI-H226 lung = test system: NCI-H226 lung
LOX IMVI melanoma = test system: LOX IMVI melanoma
ACHN renal = test system: ACHN renal
SR leukemia = test system: SR leukemia
SF-539 CNS = test system: SF-539 CNS
CAKI-1 renal = test system: CAKI-1 renal
TK-10 renal = test system: TK-10 renal
HCT-116 colon = test system: HCT-116 colon
SK-MEL-28 melanoma = test system: SK-MEL-28 melanoma
CCRF-CEM leukemia = test system: CCRF-CEM leukemia
HOP-92 NSCLC = test system: HOP-92 NSCLC
HT29 colon = test system: HT29 colon
SF-268 CNS = test system: SF-268 CNS
UACC-257 melanoma = test system: UACC-257 melanoma
SN12C renal = test system: SN12C renal
K-562 leukemia = test system: K-562 leukemia
KM12 colon = test system: KM12 colon
NCI-H460 lung = test system: NCI-H460 lung
A498 renal = test system: A498 renal

O=S(=O)(Nc1cccc2ccccc12)c1ccc(-c2cnc(C3CC3)o2)cc1
GI50 (IGROV1 ovarian): 62.6 nM
TGI (IGROV1 ovarian): > 100000 nM
GI50 (HL-60(TB) leukemia): 30.1 nM
TGI (HL-60(TB) leukemia): 388 nM
GI50 (M14 melanoma): 76.4 nM
TGI (M14 melanoma): > 48500 nM
GI50 (U251 CNS): 74.5 nM
TGI (U251 CNS): 97100 nM
GI50 (EKVX NSCLC): 276 nM
TGI (EKVX NSCLC): > 91400 nM
GI50 (HCT-15 colon): 50.5 nM
TGI (HCT-15 colon): > 42000 nM
GI50 (UACC-62 melanoma): 40.2 nM
TGI (UACC-62 melanoma): 23500 nM
GI50 (SF-295 CNS): 40.1 nM
TGI (SF-295 CNS): 15600 nM
GI50 (UO-31 renal): 74.5 nM
TGI (UO-31 renal): > 59200 nM
GI50 (MCF7 breast): 32.9 nM
TGI (MCF7 breast): > 57700 nM
GI50 (BT-549 breast): 4200 nM
TGI (BT-549 breast): 34800 nM
GI50 (HOP-62 NSCLC): 99.5 nM
TGI (HOP-62 NSCLC): > 89700 nM
GI50 (OVCAR-4 ovarian): 88 nM
TGI (OVCAR-4 ovarian): > 100000 nM
GI50 (SNB-19 CNS): 63 nM
TGI (SNB-19 CNS): > 100000 nM
GI50 (SK-OV-3 ovarian): 2190 nM
TGI (SK-OV-3 ovarian): > 85800 nM
GI50 (DU-145 prostate): 144 nM
TGI (DU-145 prostate): > 100000 nM
GI50 (RPMI-8226 leukemia): 53.6 nM
TGI (RPMI-8226 leukemia): 20000 nM
GI50 (SNB-75 CNS): 30.1 nM
TGI (SNB-75 CNS): 82500 nM
GI50 (OVCAR-8 ovarian): 347 nM
TGI (OVCAR-8 ovarian): > 100000 nM
GI50 (MOLT-4 leukemia): 101 nM
TGI (MOLT-4 leukemia): > 49400 nM
GI50 (PC-3 prostate): 47.4 nM
TGI (PC-3 prostate): > 59900 nM
GI50 (OVCAR-3 ovarian): 42.5 nM
TGI (OVCAR-3 ovarian): 15700 nM
GI50 (A549 NSCLC): 141 nM
TGI (A549 NSCLC): > 100000 nM
GI50 (MDA-MB-435): 24.3 nM
TGI (MDA-MB-435): 85.4 nM
GI50 (786-0 renal): 71.2 nM
TGI (786-0 renal): > 82900 nM
GI50 (MALME-3M melanoma): 12100 nM
TGI (MALME-3M melanoma): 67300 nM
GI50 (OVCAR-5 ovarian): 450 nM
TGI (OVCAR-5 ovarian): > 100000 nM
GI50 (SK-MEL-2 melanoma): 2420 nM
TGI (SK-MEL-2 melanoma): 56500 nM
GI50 (HS 578T breast): 56.3 nM
TGI (HS 578T breast): > 76100 nM
GI50 (SW-620 colon): 48.9 nM
TGI (SW-620 colon): > 100000 nM
GI50 (RXF 393 renal): 23.7 nM
TGI (RXF 393 renal): 141 nM
GI50 (NCI-H23 lung): 186 nM
TGI (NCI-H23 lung): 31500 nM
GI50 (SK-MEL-5 melanoma): 56.8 nM
TGI (SK-MEL-5 melanoma): 3410 nM
GI50 (NCI/ADR-RES ovarian): 45.5 nM
TGI (NCI/ADR-RES ovarian): 16700 nM
GI50 (MDA-MB-231 breast): 389 nM
TGI (MDA-MB-231 breast): > 48700 nM
GI50 (HCC-2998 colon): 220 nM
TGI (HCC-2998 colon): 23900 nM
GI50 (COLO 205 colon): 99 nM
TGI (COLO 205 colon): 1350 nM
GI50 (NCI-H522 lung): 61.2 nM
TGI (NCI-H522 lung): 24000 nM
GI50 (NCI-H226 lung): 106 nM
TGI (NCI-H226 lung): 30600 nM
GI50 (LOX IMVI melanoma): 48.8 nM
TGI (LOX IMVI melanoma): 26000 nM
GI50 (ACHN renal): 68.4 nM
TGI (ACHN renal): > 100000 nM
GI50 (SR leukemia): 40.2 nM
TGI (SR leukemia): > 34300 nM
GI50 (SF-539 CNS): 42.3 nM
TGI (SF-539 CNS): 2070 nM
GI50 (CAKI-1 renal): 46.3 nM
TGI (CAKI-1 renal): > 81700 nM
GI50 (TK-10 renal): 19700 nM
TGI (TK-10 renal): > 100000 nM
GI50 (HCT-116 colon): 47.3 nM
TGI (HCT-116 colon): > 74500 nM
GI50 (SK-MEL-28 melanoma): 3440 nM
TGI (SK-MEL-28 melanoma): > 100000 nM
GI50 (CCRF-CEM leukemia): 41.2 nM
TGI (CCRF-CEM leukemia): > 100000 nM
GI50 (HOP-92 NSCLC): < 19.3 nM
TGI (HOP-92 NSCLC): 4790 nM
GI50 (HT29 colon): 48.4 nM
TGI (HT29 colon): > 68900 nM
GI50 (SF-268 CNS): 716 nM
TGI (SF-268 CNS): > 100000 nM
GI50 (UACC-257 melanoma): 5940 nM
TGI (UACC-257 melanoma): 45700 nM
GI50 (SN12C renal): 508 nM
TGI (SN12C renal): > 64600 nM
GI50 (K-562 leukemia): 41.7 nM
TGI (K-562 leukemia): > 73200 nM
GI50 (KM12 colon): 49.8 nM
TGI (KM12 colon): 14900 nM
GI50 (NCI-H460 lung): 43.5 nM
TGI (NCI-H460 lung): 12600 nM
GI50 (A498 renal): 33.4 nM
TGI (A498 renal): 500 nM
